# Assay results published in the supplement of paper PMC10307832.
# Tests used:
# Experiment in all cases: relative viability (nuclei count vs DMSO), 5 days (fraction); higher = more cells survive
# Midostaurin + Foretinib = compound: CO[C@@H]1[C@H](N(C)C(=O)c2ccccc2)C[C@H]2O[C@]1(C)n1c3ccccc3c3c4c(c5c6ccccc6n2c5c31)C(=O)NC4 [Midostaurin] + COc1cc2c(Oc3ccc(NC(=O)C4(C(=O)Nc5ccc(F)cc5)CC4)cc3F)ccnc2cc1OCCCN1CCOCC1 [Foretinib] (partner 0.25 µM)
# In short: (§1)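 Lung cancer cell lines in 1536-well plates got either a single drug or a fixed anchor-drug dose together with five library-drug doses (not always all listed) in √10 steps, by pin tool, on the day after seeding. Nuclei were counted after 5 days, and relative viability is the treated-to-vehicle ratio of nuclei counts. Values are medians of duplicate plates.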
# [1] = compound: COc1cc(-c2nn([C@H]3CC[C@H](N4CCN(C(C)=O)CC4)CC3)c3ncnc(N)c23)ccc1NC(=O)c1cc2ccccc2n1C + NC(=O)Nc1cc(-c2cccc(F)c2)sc1C(=O)N[C@H]1CCCNC1 [AZD7762] (partner 0.2 µM)
# In short: as §1
# Midostaurin + Pictilisib = compound: CO[C@@H]1[C@H](N(C)C(=O)c2ccccc2)C[C@H]2O[C@]1(C)n1c3ccccc3c3c4c(c5c6ccccc6n2c5c31)C(=O)NC4 [Midostaurin] + CS(=O)(=O)N1CCN(Cc2cc3nc(-c4cccc5[nH]ncc45)nc(N4CCOCC4)c3s2)CC1 [Pictilisib] (partner 1 µM)
# In short: as §1
# Midostaurin + Vorinostat = compound: CO[C@@H]1[C@H](N(C)C(=O)c2ccccc2)C[C@H]2O[C@]1(C)n1c3ccccc3c3c4c(c5c6ccccc6n2c5c31)C(=O)NC4 [Midostaurin] + O=C(CCCCCCC(=O)Nc1ccccc1)NO [Vorinostat] (partner 1 µM)
# In short: as §1
# [2] = compound: COc1cc(-c2nn([C@H]3CC[C@H](N4CCN(C(C)=O)CC4)CC3)c3ncnc(N)c23)ccc1NC(=O)c1cc2ccccc2n1C + CC(=O)Nc1cccc(-n2c(=O)n(C3CC3)c(=O)c3c(Nc4ccc(I)cc4F)n(C)c(=O)c(C)c32)c1 [Trametinib] (partner 0.02 µM)
# In short: as §1
Cell Line,relative viability (Midostaurin + Foretinib; first compound 0.01 µM),relative viability (Midostaurin + Foretinib; first compound 0.03162 µM),relative viability (Midostaurin + Foretinib; first compound 0.1 µM),relative viability (Midostaurin + Foretinib; first compound 0.3162 µM),relative viability ([1]; first compound 0.0128 µM),relative viability ([1]; first compound 0.04048 µM),relative viability ([1]; first compound 0.128 µM),relative viability ([1]; first compound 1.28 µM),relative viability (Midostaurin + Pictilisib; first compound 0.01 µM),relative viability (Midostaurin + Pictilisib; first compound 0.03162 µM),relative viability (Midostaurin + Pictilisib; first compound 0.1 µM),relative viability (Midostaurin + Pictilisib; first compound 0.3162 µM),relative viability (Midostaurin + Vorinostat; first compound 0.01 µM),relative viability (Midostaurin + Vorinostat; first compound 0.03162 µM),relative viability (Midostaurin + Vorinostat; first compound 0.1 µM),relative viability (Midostaurin + Vorinostat; first compound 0.3162 µM),relative viability ([2]; first compound 0.0128 µM),relative viability ([2]; first compound 0.04048 µM),relative viability ([2]; first compound 0.128 µM),relative viability ([2]; first compound 1.28 µM)
HCC-827,0.98,1.04,1.01,1.05,0.211,0.212,0.199,0.138,1.03,1,1.16,1.25,0.869,0.724,0.897,0.873,0.574,0.341,0.525,0.286
HOP-62,1.14,1.04,1.16,1.2,0.74,0.555,0.661,0.566,0.804,0.641,0.735,1.11,0.545,0.607,0.676,0.5,0.428,0.173,0.376,0.296
LC-2-ad,0.919,0.897,0.914,1.04,0.86,0.846,0.789,0.646,0.432,0.416,0.497,0.24,0.692,0.644,0.775,0.459,0.956,0.536,0.895,0.895
LCLC-97TM1,1,0.937,0.817,0.913,0.377,0.165,0.283,0.194,0.199,,0.163,0.313,0.668,0.534,0.635,0.756,0.22,0.125,0.139,0.133
LCLC-103H,0.729,0.661,0.656,0.791,0.828,0.787,0.759,0.703,0.72,0.541,0.6,0.648,0.824,0.717,0.806,0.792,0.717,0.58,0.583,0.664
LK-2,1.19,1.36,0.955,1.13,0.485,0.243,0.321,0.188,0.592,0.555,0.586,0.599,0.252,0.258,0.328,0.277,0.978,0.399,0.577,0.47
LOU-NH91,0.976,0.903,1.01,1.01,0.813,0.796,0.732,0.658,0.541,0.54,0.514,0.562,0.933,0.882,0.947,0.983,0.821,0.828,0.822,0.728
LU99A,0.708,0.854,0.695,0.783,0.327,0.404,0.352,0.35,0.299,0.316,0.302,0.245,0.672,0.433,0.454,0.479,0.578,0.288,0.529,0.489
